Assay results: US12139487B2, “Compounds and uses thereof” (Foghorn Therapeutics Inc., priority 2022, dated 2024)

How the values were obtained:
[1] = biological target: T1, BRM (Homo sapiens, UniProt P51531); assay: ATPase catalytic activity assay (ADP-Glo), BRM; type: biochemical; conditions: Table 10; for Ratio (BRG1 IC50 (μM) divided by BRM IC50 (μM)): ATPase assay, selectivity BRG1/BRM; for IC50: ATPase catalytic activity assay (ADP-Glo)
T1 construct: made in house; host or cells: High Five insect cells
In short: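 ADP-Glo luminescence measures ADP produced by BRM ATPase (30 nM) during 1 h at room temperature. ATP is 400 μM, with 20 nM salmon sperm DNA as cofactor. Buffer: 20 mM Tris pH 8, 20 mM MgCl2, 50 mM NaCl, 0.1% Tween-20, 1 mM DTT.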

[2] = biological target: T2, BRG-1 (Homo sapiens, UniProt P51532); assay: ATPase catalytic activity assay (ADP-Glo), BRG-1; type: biochemical; conditions: Table 10, read-out: BRG1 IC50
T2 construct: made in house; host or cells: High Five insect cells
In short: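 In this in vitro format, BRG-1 hydrolysis product ADP is detected via a two-step ADP-Glo workup (ATP removal, then ADP-to-ATP conversion with luciferase detection) followed by a luminescence read.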

T1 sequence (P51531 whole entry): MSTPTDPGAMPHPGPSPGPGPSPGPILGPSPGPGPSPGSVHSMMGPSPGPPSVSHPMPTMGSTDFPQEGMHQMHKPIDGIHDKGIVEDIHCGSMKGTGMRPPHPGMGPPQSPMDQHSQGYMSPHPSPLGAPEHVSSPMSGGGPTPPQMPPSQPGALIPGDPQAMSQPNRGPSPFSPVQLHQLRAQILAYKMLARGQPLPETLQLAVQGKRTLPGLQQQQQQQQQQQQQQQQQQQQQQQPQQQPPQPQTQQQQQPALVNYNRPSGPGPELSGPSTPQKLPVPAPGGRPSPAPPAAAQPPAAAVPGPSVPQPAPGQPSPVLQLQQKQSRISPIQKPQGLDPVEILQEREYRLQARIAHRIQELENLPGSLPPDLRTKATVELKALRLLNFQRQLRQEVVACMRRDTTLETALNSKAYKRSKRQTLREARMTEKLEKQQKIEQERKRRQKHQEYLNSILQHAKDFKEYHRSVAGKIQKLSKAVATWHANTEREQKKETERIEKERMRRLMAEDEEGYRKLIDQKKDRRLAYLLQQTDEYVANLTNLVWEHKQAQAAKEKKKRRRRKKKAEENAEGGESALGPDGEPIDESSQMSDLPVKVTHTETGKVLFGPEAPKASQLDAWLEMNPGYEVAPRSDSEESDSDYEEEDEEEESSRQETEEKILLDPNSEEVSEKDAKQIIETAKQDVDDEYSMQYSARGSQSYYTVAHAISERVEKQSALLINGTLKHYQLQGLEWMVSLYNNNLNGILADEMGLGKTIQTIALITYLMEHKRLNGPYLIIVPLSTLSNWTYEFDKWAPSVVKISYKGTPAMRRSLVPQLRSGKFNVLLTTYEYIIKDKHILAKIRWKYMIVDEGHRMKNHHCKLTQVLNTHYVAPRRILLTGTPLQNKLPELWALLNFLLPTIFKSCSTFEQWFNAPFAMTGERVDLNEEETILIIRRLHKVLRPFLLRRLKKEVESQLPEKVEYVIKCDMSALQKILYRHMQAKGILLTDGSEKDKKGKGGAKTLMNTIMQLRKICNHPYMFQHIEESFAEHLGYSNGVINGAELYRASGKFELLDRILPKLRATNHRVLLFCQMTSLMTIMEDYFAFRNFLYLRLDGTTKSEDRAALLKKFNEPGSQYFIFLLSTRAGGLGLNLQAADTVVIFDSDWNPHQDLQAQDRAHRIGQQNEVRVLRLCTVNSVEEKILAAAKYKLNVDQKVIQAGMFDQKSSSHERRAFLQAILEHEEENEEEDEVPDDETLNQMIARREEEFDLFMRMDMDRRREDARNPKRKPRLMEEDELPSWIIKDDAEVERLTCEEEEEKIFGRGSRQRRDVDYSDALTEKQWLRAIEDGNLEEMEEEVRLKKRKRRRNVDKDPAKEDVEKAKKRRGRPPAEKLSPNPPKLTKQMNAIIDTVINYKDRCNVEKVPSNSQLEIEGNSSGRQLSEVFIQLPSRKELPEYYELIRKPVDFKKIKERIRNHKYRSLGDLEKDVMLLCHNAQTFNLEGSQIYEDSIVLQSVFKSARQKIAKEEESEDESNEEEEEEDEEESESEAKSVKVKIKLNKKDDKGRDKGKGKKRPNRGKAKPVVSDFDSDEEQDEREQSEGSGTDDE
T2 sequence (P51532 whole entry): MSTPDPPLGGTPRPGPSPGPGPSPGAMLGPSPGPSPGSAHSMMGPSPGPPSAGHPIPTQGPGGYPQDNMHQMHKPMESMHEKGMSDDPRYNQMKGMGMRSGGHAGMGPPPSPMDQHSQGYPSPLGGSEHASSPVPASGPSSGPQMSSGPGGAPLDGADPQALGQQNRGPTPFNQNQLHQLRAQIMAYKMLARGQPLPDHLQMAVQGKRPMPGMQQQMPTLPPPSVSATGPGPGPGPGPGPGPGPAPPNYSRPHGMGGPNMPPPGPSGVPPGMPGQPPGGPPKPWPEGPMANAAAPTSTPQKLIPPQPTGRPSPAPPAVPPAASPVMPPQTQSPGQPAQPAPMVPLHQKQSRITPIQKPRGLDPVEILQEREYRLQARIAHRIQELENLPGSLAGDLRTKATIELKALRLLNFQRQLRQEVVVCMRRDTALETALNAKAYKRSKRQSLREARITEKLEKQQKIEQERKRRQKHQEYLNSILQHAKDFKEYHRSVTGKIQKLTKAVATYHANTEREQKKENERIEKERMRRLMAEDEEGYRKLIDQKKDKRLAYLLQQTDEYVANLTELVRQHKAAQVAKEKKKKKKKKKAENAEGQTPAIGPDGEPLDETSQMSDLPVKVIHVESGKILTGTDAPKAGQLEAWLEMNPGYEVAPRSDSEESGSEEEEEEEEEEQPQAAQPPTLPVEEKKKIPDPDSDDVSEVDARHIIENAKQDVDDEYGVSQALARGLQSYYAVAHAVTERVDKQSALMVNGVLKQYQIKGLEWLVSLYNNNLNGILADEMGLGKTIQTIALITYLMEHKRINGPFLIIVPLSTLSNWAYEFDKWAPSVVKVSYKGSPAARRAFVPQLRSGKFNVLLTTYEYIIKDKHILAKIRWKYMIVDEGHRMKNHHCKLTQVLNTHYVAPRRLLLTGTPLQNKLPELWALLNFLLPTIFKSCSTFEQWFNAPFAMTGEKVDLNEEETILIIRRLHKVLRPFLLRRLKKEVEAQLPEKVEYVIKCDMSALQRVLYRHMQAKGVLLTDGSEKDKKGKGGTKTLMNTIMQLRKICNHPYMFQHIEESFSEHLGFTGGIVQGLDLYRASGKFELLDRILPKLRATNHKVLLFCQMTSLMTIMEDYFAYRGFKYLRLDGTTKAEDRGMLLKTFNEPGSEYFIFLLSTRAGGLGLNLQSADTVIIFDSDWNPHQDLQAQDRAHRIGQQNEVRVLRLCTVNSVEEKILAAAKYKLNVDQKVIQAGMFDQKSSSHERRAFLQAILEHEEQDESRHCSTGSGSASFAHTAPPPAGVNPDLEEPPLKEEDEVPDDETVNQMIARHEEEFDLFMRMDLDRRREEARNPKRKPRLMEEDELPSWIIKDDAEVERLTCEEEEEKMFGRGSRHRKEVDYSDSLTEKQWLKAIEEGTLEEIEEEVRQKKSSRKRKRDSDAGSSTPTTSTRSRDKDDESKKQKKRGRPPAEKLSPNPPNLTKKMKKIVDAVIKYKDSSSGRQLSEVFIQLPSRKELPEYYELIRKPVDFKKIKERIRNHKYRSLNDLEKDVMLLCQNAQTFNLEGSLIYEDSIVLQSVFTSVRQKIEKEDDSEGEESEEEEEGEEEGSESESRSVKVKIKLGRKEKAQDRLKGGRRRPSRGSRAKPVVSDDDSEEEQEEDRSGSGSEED

| Ratio (BRG1 IC50 (μM) divided by BRM IC50 (μM)) [1] | IC50 [1] | IC50 [2] | SMILES |
| --- | --- | --- | --- |
| 10.33 | 0.0041 µM | 0.0422 µM | O=C(NCc1cc2nc(N3CCOc4ccc(N5CCC(F)(F)C5)nc43)ccc2cn1)c1cc(F)c2c(c1)S(=O)(=O)[C@@H](F)CCO2 [Compound 119] |
| 15.83 | 0.008 µM | 0.126 µM | COc1nc([C@@](C)(F)C(F)F)ccc1-c1ccc2cnc(CNC(=O)c3cc(F)c4c(c3)S(=O)(=O)[C@@H](F)COC4)cc2n1 [Compound 251] |
| 24.09 | 0.0047 µM | 0.147 µM | O=C(NCc1cc2nc(N3CCOc4cc(N5CC(F)C5)cnc43)ccc2cn1)c1cc(F)c2c(c1)S(=O)(=O)[C@@H](F)CCO2 [Compound 139] |
| 10.49 | 0.0088 µM | 0.0918 µM | Cc1cc2c(-c3ccc4cnc(CNC(=O)c5cc(F)c6c(c5)S(=O)(=O)[C@@H](F)CCO6)cc4n3)ccnc2n1C [Compound 267] |
| 15.43 | 0.0015 µM | 0.024 µM | O=C(NCc1cc2nc(N3CCCc4c(OC5CC5)ccnc43)ccc2cn1)c1cc(F)c2c(c1)S(=O)(=O)[C@@H](F)CCO2 [Compound 18] |
| 20.42 | 0.0104 µM | 0.161 µM | O=C(NCc1cc2nc(-c3cccc(OC(F)(F)F)n3)ccc2cn1)c1cc(F)c2c(c1)S(=O)(=O)[C@@H](F)COC2 [Compound 307] |
| 10.64 | 0.0058 µM | 0.0621 µM | Cn1ccc2c(-c3ccc4cnc(CNC(=O)c5cc(F)c6c(c5)S(=O)(=O)[C@@H](F)CCO6)cc4n3)cccc21 [Compound 191] |
| 11.56 | 0.0087 µM | 0.101 µM | O=C(NCc1cc2nc(N3CCOc4cc(C(F)(F)F)cnc43)ccc2cn1)c1cc(F)c2c(c1)S(=O)(=O)[C@@H](F)CCO2 [Compound 265] |
| 22.02 | 0.0089 µM | 0.174 µM | COc1cccc(-c2ccc3cnc(CNC(=O)c4cc(F)c5c(c4)S(=O)(=O)[C@@H](F)COC5)cc3n2)n1 [Compound 270] |
| 21.51 | 0.0017 µM | 0.0439 µM | O=C(NCc1cc2nc(N3CCOc4cc(C5(C(F)F)CC5)cnc43)ccc2cn1)c1cc(F)c2c(c1)S(=O)(=O)[C@@H](F)COC2 [Compound 25] |
| 17.52 | 0.0039 µM | 0.0872 µM | O=C(NCc1cc2nc(N3CCOc4cc(N5CC[C@H](F)[C@@H](F)C5)cnc43)ccc2cn1)c1cc(F)c2c(c1)S(=O)(=O)[C@@H](F)CCO2 [Compound 109] |
| 15.21 | 0.005 µM | 0.068 µM | CCOCc1cnc2c(c1)OCCN2c1ccc2cnc(CNC(=O)c3cc(F)c4c(c3)S(=O)(=O)[C@@H](F)CCO4)cc2n1 [Compound 154] |
| 23.94 | 0.008 µM | 0.219 µM | O=C(NCc1cc2nc(-c3cccc(C4CC4)n3)ccc2cn1)c1cc(F)c2c(c1)S(=O)(=O)[C@@H](F)CCO2 [Compound 252] |
| 17.02 | 0.0056 µM | 0.123 µM | CC(F)(F)c1cnc2c(c1)OCCN2c1ccc2cnc(CNC(=O)c3cc(F)c4c(c3)S(=O)(=O)[C@@H](F)CCO4)cc2n1 [Compound 176] |
| 11.90 | 0.0013 µM | 0.0157 µM | COCc1cc2c(c(F)c1Cl)N(c1ccc3cnc(CNC(=O)c4cc(F)c5c(c4)S(=O)(=O)[C@@H](F)CCO5)cc3n1)CCO2 [Compound 10] |
| 10.27 | 0.0015 µM | 0.0178 µM | C[C@@H]1CN(c2nccc(-c3ccc4cnc(CNC(=O)c5cc(F)c6c(c5)S(=O)(=O)[C@@H](F)CCO6)cc4c3)n2)C[C@H](C)O1 [Compound 16] |
| 17.82 | 0.0051 µM | 0.076 µM | Cc1cc(C(=O)NCc2cc3nc(N4CCOc5cc(N6CC[C@H]6C)cnc54)ccc3cn2)cc2c1OCC[C@H](F)S2(=O)=O [Compound 160] |
| 11.71 | 0.0061 µM | 0.0717 µM | O=C(NCc1cc2nc(N3CCOc4cc(N5CCC(F)CC5)cnc43)ccc2cn1)c1cc(F)c2c(c1)S(=O)(=O)[C@@H](F)CCO2 [Compound 204] |
| 11.58 | 0.0092 µM | 0.106 µM | COc1ccc(-c2ccc3cnc(CNC(=O)c4cc(F)c5c(c4)S(=O)(=O)[C@@H](F)COC5)cc3n2)nc1[C@H]1CC1(F)F [Compound 280] |
| 32.00 | 0.0052 µM | 0.172 µM | O=C(NCc1cc2nc(N3CCOc4ccc([C@H]5C[C@@H]5F)nc43)ccc2cn1)c1cc(F)c2c(c1)S(=O)(=O)[C@@H](F)CCO2 [Compound 164] |

| Ratio (BRG1 IC50 (μM) divided by BRM IC50 (μM)) [1] | IC50 [1] | IC50 [2] | SMILES |
| --- | --- | --- | --- |
| 17.91 | 0.0078 µM | 0.166 µM | COc1nc(C)ccc1-c1ccc2cnc(CNC(=O)c3cc(F)c4c(c3)S(=O)(=O)[C@@H](F)CCO4)cc2n1 [Compound 245] |
| 9.64 | 0.0011 µM | 0.0109 µM | C[C@@H]1CN(c2cccc(-c3ccc4cnc(CNC(=O)c5cc(F)c6c(c5)S(=O)(=O)[C@H](F)CCCO6)cc4n3)n2)C[C@H](C)O1 [Compound 5] |
| 21.94 | 0.0026 µM | 0.0462 µM | O=C(NCc1cc2nc(N3CCOc4c(N5CCC5)ccnc43)ccc2cn1)c1cc(F)c2c(c1)S(=O)(=O)[C@@H](F)CCO2 [Compound 65] |
|  | 0.0052 µM | 0.116 µM | [2H]C1([2H])OC([2H])([2H])[C@H](F)S(=O)(=O)c2cc(C(=O)NCc3cc4nc(N5CCOc6ccc(C(F)F)nc65)ccc4cn3)cc(F)c21 [Compound 163] |
| 26.09 | 0.0096 µM | 0.203 µM | COc1nscc1-c1ccc2cnc(CNC(=O)c3cc(F)c4c(c3)S(=O)(=O)[C@@H](F)CCO4)cc2n1 [Compound 288] |
| 22.51 | 0.0088 µM | 0.199 µM | O=C(NCc1cc2cc(-c3cccc([C@@H]4CC4(F)F)n3)ccc2cn1)c1cc(F)c2c(c1)S(=O)(=O)[C@@H](F)CCO2 [Compound 268] |
| 29.78 | 0.0089 µM | 0.294 µM | COCCOc1cnc2c(c1)CCCN2c1ccc2cnc(CNC(=O)c3cc(F)c4c(c3)S(=O)(=O)[C@@H](F)CCO4)cc2n1 [Compound 271] |
| 28.75 | 0.122 µM | 3.51 µM | C[C@@H]1CN(c2cccc(-c3ccc4cnc(CNC(=O)c5cc(F)c6c(c5)S(=O)(=O)[C@@H](F)CO6)cc4n3)n2)C[C@H](C)O1 [Compound 326] |
| 23.74 | 0.0078 µM | 0.217 µM | O=C(NCc1cc2nc(N3CCOc4ccc(N5CC(F)C5)nc43)ccc2cn1)c1cc(F)c2c(c1)S(=O)(=O)[C@@H](F)CCO2 [Compound 246] |
| 13.44 | 0.007 µM | 0.102 µM | C[C@H]1C[C@@H]1c1cnc2c(c1)OCCN2c1ccc2cnc(CNC(=O)c3cc(F)c4c(c3)S(=O)(=O)[C@@H](F)CCO4)cc2n1 [Compound 223] |
| 31.39 | 0.0062 µM | 0.197 µM | Cc1cc(C(=O)NCc2cc3nc(-c4cccc(OC(F)F)n4)ccc3cn2)cc2c1COC[C@H](F)S2(=O)=O [Compound 206] |
| 15.93 | 0.0053 µM | 0.0838 µM | O=C(NCc1cc2nc(N3CCOc4cc([C@H]5CC5(F)F)cnc43)ccc2cn1)c1cc(F)c2c(c1)S(=O)(=O)[C@@H](F)CCO2 [Compound 166] |
| 11.17 | 0.0019 µM | 0.0189 µM | CN(C)c1cnc2c(c1)OCCN2c1ccc2cnc(CNC(=O)c3cc(F)c4c(c3)S(=O)(=O)[C@@H](F)COC4)cc2n1 [Compound 33] |
| 15.35 | 0.0039 µM | 0.0694 µM | C#Cc1ccc2c(n1)N(c1ccc3cnc(CNC(=O)c4cc(F)c5c(c4)S(=O)(=O)[C@@H](F)CCO5)cc3n1)CCO2 [Compound 110] |
| 29.13 | 0.004 µM | 0.118 µM | O=C(NCc1cc2nc(-c3cccc(C4CC4)n3)ccc2cn1)c1cc(F)c2c(c1)S(=O)(=O)[C@@H](F)COC2 [Compound 114] |
| 14.72 | 0.0051 µM | 0.1 µM | O=C(NCc1cc2nc(N3CCOc4cc(C(F)F)cnc43)ccc2cn1)c1cc(F)c2c(c1)S(=O)(=O)[C@@H](F)CCO2 [Compound 159] |
| 30.21 | 0.0055 µM | 0.178 µM | COc1nc([C@H](C)F)ccc1-c1ccc2cnc(CNC(=O)c3cc(F)c4c(c3)S(=O)(=O)[C@@H](F)CCO4)cc2n1 [Compound 173] |
| 12.22 | 0.0076 µM | 0.0932 µM | CC#Cc1cnc2c(c1)OCCN2c1ccc2cnc(CNC(=O)c3cc(F)c4c(c3)S(=O)(=O)[C@@H](F)COC4)cc2n1 [Compound 239] |
| 9.72 | 0.0025 µM | 0.0279 µM | CO[C@H]1CN(c2cccc(-c3ccc4cnc(CNC(=O)c5cc(F)c6c(c5)S(=O)(=O)[C@@H](F)COC6)cc4n3)n2)C[C@@H]1F [Compound 54] |
| 28.19 | 0.0056 µM | 0.158 µM | COc1nc([C@H](C)F)ccc1-c1ccc2cnc(CNC(=O)c3cc(Cl)c4c(c3)S(=O)(=O)[C@@H](F)COC4)cc2n1 [Compound 174] |
